Measurements published in patent publication US9957263B2, “Bromodomain inhibitors” (AbbVie Inc., priority 2013, dated 2018).

Legend:
BRD4 (BDI_K57-E168) = BRD4 (BDI_K57-E168) (Homo sapiens (Human), UniProt O60885); test: TR-FRET bromodomain binding assay, BRD4 first bromodomain; settings: His-tagged BD1, Alexa647-labeled probe 100 nM
Summary of the method: (§1)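 Probe displacement, TR-FRET: 8 nM His-BRD4 domain, 1 nM Eu-anti-His, Alexa647 BET-inhibitor probe 100 nM (BDI)/30 nM (BDII); 20 mM Na phosphate pH 6.0, 50 mM NaCl, 1 mM DTT; cpd 50 μM-0.85 nM, 3-fold; 1 h RT; Ex 340/[…]; IC50 → Ki.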

BRD4 (BDII_E352-M457) = BRD4 (BDII_E352-M457) (Homo sapiens (Human), UniProt O60885); test: TR-FRET bromodomain binding assay, BRD4 second bromodomain; settings: His-tagged BD2, Alexa647-labeled probe 30 nM
Summary of the method: as §1

[1] = tested on: breast cancer cell line MX-1; test: MX-1 cell line proliferation assay, Method B; assay type: cell-based; settings: Homo sapiens, MX1; MX-1 cells, 384-well, 72 hours, Cell Titer Glo; read-out: Cellular proliferation: EC50 Method B
Description: The impact of compounds of the Examples on cancer cell proliferation was determined using the breast cancer cell line MX-1 (ATCC) in a 3-day proliferation assay and the data are reported in Table 1.
Method B: MX-1 cells were maintained in RPMI 1640 medium (Sigma) supplemented with 10% FBS at 37 C.° and an atmosphere of 5% CO2. For compound testing, MX-1 cells were plated in 384-well white with clear, flat bottom plates at a density of 750 cells/well in 25 μL of culture media and incubated at 370 overnight to allow cell adhesion and spreading. Ten point compound dilution series were prepared in DMSO via a 3-fold serial dilution from either […] or 1 μM stock and added directly to the appropriate wells of the MX-1 cell plate by an ECHO liquid handler (Labcyte). The final compound concentrations in the wells were 10, 3.25, 1, 0.25, 0.124, 0.040, 0.0124, 0.0031, 0.0015 and 0.0005 μM or 1, 0.33, 0.1, 0.025, 0.0124, 0.004, 0.0012, 0.0003, 0.00015, 0.00005 μM, depending on the concentration of the compound stock solution.
Luminescence readings from the Cell Titer Glo assay were normalized to the DMSO treated cells and analyzed using Accelrys Assay Explorer 3.3 software with sigmoidal curve fitting to obtain ECsos. The minimum significant ratio (MSR) was determined to evaluate assay reproducibility (Eastwood et al., (2006) J Biomol Screen, 11: 253-261). The overall MSR was determined to be 3.3 and a moving MSR (last six run MSR overtime) has averaged

SMILES	Ki (BRD4 (BDI_K57-E168))	Ki (BRD4 (BDII_E352-M457))	EC50 [1]
CCNC(=O)c1cc2c(-c3ccc(C(=O)N(CC#N)CC(C)c4ccccc4)cc3Oc3c(C)cccc3C)cn(C)c(=O)c2[nH]1 (stereo not drawn) [Example 167, 4-{4-[(cyanomethyl)(2-phenylpropyl)carbamoyl]-2-(2,6-dimethylphenoxy)phenyl}-N-ethyl-6-methyl-7-oxo-6,7-dihydro-1H-pyrrolo[2,3-c]pyridine-2-carboxamide]	> 12.7 µM	0.0344 µM	2.02 µM
CCNC(=O)c1cc2c(-c3ccc(C(=O)N(CC#N)c4cccc(Cl)c4)cc3Oc3c(C)cccc3C)cn(C)c(=O)c2[nH]1 [Example 168, 4-{4-[(3-chlorophenyl)(cyanomethyl)carbamoyl]-2-(2,6-dimethylphenoxy)phenyl}-N-ethyl-6-methyl-7-oxo-6,7-dihydro-1H-pyrrolo[2,3-c]pyridine-2-carboxamide]	2.31 µM	0.0223 µM	3.06 µM
CCNC(=O)c1cc2c(-c3ccc(C(=O)N(CC#N)c4ccccc4)cc3Oc3c(C)cccc3C)cn(C)c(=O)c2[nH]1 [Example 177, 4-{4-[(cyanomethyl)(phenyl)carbamoyl]-2-(2,6-dimethylphenoxy)phenyl}-N-ethyl-6-methyl-7-oxo-6,7-dihydro-1H-pyrrolo[2,3-c]pyridine-2-carboxamide]	1.49 µM	0.00921 µM	10 µM
CCNC(=O)c1cc2c(-c3ccc(C(=O)N(CCN(CC)CC)c4ccccc4C)cc3Oc3c(C)cccc3C)cn(C)c(=O)c2[nH]1 [Example 170, 4-[4-{[2-(diethylamino)ethyl](2-methylphenyl)carbamoyl}-2-(2,6-dimethylphenoxy)phenyl]-N-ethyl-6-methyl-7-oxo-6,7-dihydro-1H-pyrrolo[2,3-c]pyridine-2-carboxamide]	0.863 µM	0.00422 µM	2.17 µM
CCNC(=O)c1cc2c(-c3ccc(C(=O)N(CCN(CC)CC)c4ccccc4)cc3Oc3c(C)cccc3C)cn(C)c(=O)c2[nH]1 [Example 182, 4-[4-{[2-(diethylamino)ethyl](phenyl)carbamoyl}-2-(2,6-dimethylphenoxy)phenyl]-N-ethyl-6-methyl-7-oxo-6,7-dihydro-1H-pyrrolo[2,3-c]pyridine-2-carboxamide]	0.921 µM	0.00606 µM	2.12 µM
CCNC(=O)c1cc2c(-c3ccc(C(=O)N(CC#N)c4ccc(Cl)cc4)cc3Oc3c(C)cccc3C)cn(C)c(=O)c2[nH]1 [Example 169, 4-{4-[(4-chlorophenyl)(cyanomethyl)carbamoyl]-2-(2,6-dimethylphenoxy)phenyl}-N-ethyl-6-methyl-7-oxo-6,7-dihydro-1H-pyrrolo[2,3-c]pyridine-2-carboxamide]	1.4 µM	0.0278 µM	2.17 µM
CCNC(=O)c1cc2c(-c3ccc(C(=O)N(CCC#N)c4cccc(Cl)c4)cc3Oc3c(C)cccc3C)cn(C)c(=O)c2[nH]1 [Example 175, 4-{4-[(3-chlorophenyl)(2-cyanoethyl)carbamoyl]-2-(2,6-dimethylphenoxy)phenyl}-N-ethyl-6-methyl-7-oxo-6,7-dihydro-1H-pyrrolo[2,3-c]pyridine-2-carboxamide]	2.23 µM	0.0175 µM	2.41 µM
CCNC(=O)c1cc2c(-c3ccc(C(=O)N(CCN(C)C)c4ncccn4)cc3Oc3c(C)cccc3C)cn(C)c(=O)c2[nH]1 [Example 174, 4-[4-{[2-(dimethylamino)ethyl](pyrimidin-2-yl)carbamoyl}-2-(2,6-dimethylphenoxy)phenyl]-N-ethyl-6-methyl-7-oxo-6,7-dihydro-1H-pyrrolo[2,3-c]pyridine-2-carboxamide]	2.3 µM	0.0133 µM	1.61 µM
CCNC(=O)c1cc2c(-c3ccc(C(=O)N(CCN(CC)CC)c4ccccc4OC)cc3Oc3c(C)cccc3C)cn(C)c(=O)c2[nH]1 [Example 178, 4-[4-{[2-(diethylamino)ethyl](2-methoxyphenyl)carbamoyl}-2-(2,6-dimethylphenoxy)phenyl]-N-ethyl-6-methyl-7-oxo-6,7-dihydro-1H-pyrrolo[2,3-c]pyridine-2-carboxamide]	0.592 µM	0.0025 µM	10 µM
CCNC(=O)c1cc2c(-c3ccc(C(=O)N(CCCN4CCCC4)C(C)Cc4ccccc4)cc3Oc3c(C)cccc3C)cn(C)c(=O)c2[nH]1 (stereo not drawn) [Example 165, 4-[2-(2,6-dimethylphenoxy)-4-{(1-phenylpropan-2-yl) [3-(pyrrolidin-1-yl)propyl]carbamoyl}phenyl]-N-ethyl-6-methyl-7-oxo-6,7-dihydro-1H-pyrrolo[2,3-c]pyridine-2-carboxamide]	0.429 µM	0.00448 µM	1.46 µM
CCNC(=O)c1cc2c(-c3ccc(C(=O)N(CC#N)c4ccc(OC)cc4)cc3Oc3c(C)cccc3C)cn(C)c(=O)c2[nH]1 [Example 183, 4-{4-[(cyanomethyl)(4-methoxyphenyl)carbamoyl]-2-(2,6-dimethylphenoxy)phenyl}-N-ethyl-6-methyl-7-oxo-6,7-dihydro-1H-pyrrolo[2,3-c]pyridine-2-carboxamide]	2.8 µM	0.0141 µM	1.48 µM
CCNC(=O)c1cc2c(-c3ccc(C(=O)N(CCN(C)C)c4ccnc(F)c4)cc3Oc3c(C)cccc3C)cn(C)c(=O)c2[nH]1 [Example 185, 4-[4-{[2-(dimethylamino)ethyl](2-fluoropyridin-4-yl)carbamoyl}-2-(2,6-dimethylphenoxy)phenyl]-N-ethyl-6-methyl-7-oxo-6,7-dihydro-1H-pyrrolo[2,3-c]pyridine-2-carboxamide]	2.94 µM	0.0143 µM	2.72 µM
CCNC(=O)c1cc2c(-c3ccc(C(=O)N(CC#N)c4cccc(C(F)(F)F)c4)cc3Oc3c(C)cccc3C)cn(C)c(=O)c2[nH]1 [Example 171, 4-[4-{(cyanomethyl)[3-(trifluoromethyl)phenyl]carbamoyl}-2-(2,6-dimethylphenoxy)phenyl]-N-ethyl-6-methyl-7-oxo-6,7-dihydro-1H-pyrrolo[2,3-c]pyridine-2-carboxamide]	> 12.7 µM	0.0383 µM	6.41 µM
CN1CCN(Cc2cc3c(-c4cc(S(C)(=O)=O)ccc4Oc4ccc(F)cc4F)cn(C)c(=O)c3[nH]2)C(c2ccccc2)C1 (stereo not drawn) [Example 188, 4-[2-(2,4-difluorophenoxy)-5-(methylsulfonyl)phenyl]-6-methyl-2-[(4-methyl-2-phenylpiperazin-1-yl)methyl]-1,6-dihydro-7H-pyrrolo[2,3-c]pyridin-7-one]	0.00156 µM	0.151 µM	0.0768 µM
CCNC(=O)c1cc2c(-c3ccc(C(=O)N(CCN(C)C)c4ccccn4)cc3Oc3c(C)cccc3C)cn(C)c(=O)c2[nH]1 [Example 181, 4-[4-{[2-(dimethylamino)ethyl](pyridin-2-yl)carbamoyl}-2-(2,6-dimethylphenoxy)phenyl]-N-ethyl-6-methyl-7-oxo-6,7-dihydro-1H-pyrrolo[2,3-c]pyridine-2-carboxamide]	1.73 µM	0.00918 µM	3.98 µM
CCNC(=O)c1cc2c(-c3ccc(C(=O)N(CCCC(=O)OCC)c4ccccc4)cc3Oc3c(C)cccc3C)cn(C)c(=O)c2[nH]1 [Example 180, ethyl 4-[{3-(2,6-dimethylphenoxy)-4-[2-(ethylcarbamoyl)-6-methyl-7-oxo-6,7-dihydro-1H-pyrrolo[2,3-c]pyridin-4-yl]benzoyl}(phenyl)amino]butanoate]	8.61 µM	0.0308 µM	6.06 µM
CCNC(=O)c1cc2c(-c3ccc(C(=O)N(CCN(C)C)c4ccccc4)cc3Oc3c(C)cccc3C)cn(C)c(=O)c2[nH]1 [Example 179, 4-[4-{[2-(dimethylamino)ethyl](phenyl)carbamoyl}-2-(2,6-dimethylphenoxy)phenyl]-N-ethyl-6-methyl-7-oxo-6,7-dihydro-1H-pyrrolo[2,3-c]pyridine-2-carboxamide]	1.58 µM	0.00824 µM	0.991 µM
CCNC(=O)c1cc2c(-c3ccc(C(=O)N(CCC#N)C4CCCCC4)cc3Oc3c(C)cccc3C)cn(C)c(=O)c2[nH]1 [Example 176, 4-{4-[(2-cyanoethyl)(cyclohexyl)carbamoyl]-2-(2,6-dimethylphenoxy)phenyl}-N-ethyl-6-methyl-7-oxo-6,7-dihydro-1H-pyrrolo[2,3-c]pyridine-2-carboxamide]	0.927 µM	0.00865 µM	3.91 µM
